What was measured:
[1] = cited from earlier work
[2] = E2 release from hydrogel discs, E2 pellets and E2 powder into incubation medium (ELISA); type: physicochemical; details: 50 mL incubation medium, 37° C., 6 rpm
Excerpt: (§1) Low standards were removed from the analysis.

[3] = Release assay on E2 microspheres (same manner as discs); type: physicochemical; details: day 3
Description: Release assays on the E2 microspheres were conducted in the same manner as described above for the discs.
as §1

SMILES	solubility factor in water compared to E2 [1]	E2 released into incubation media (concentration) ([2]; day 1 / 24 hours)	E2 released into incubation media (concentration) ([2]; day 2 / 48 hours)	E2 released into incubation media (accumulated concentration) ([2]; day 3 / 72 hours)	E2 release level [3]
C[C@]12CC[C@H]3[C@@H](CCC4=CC(=O)CC[C@@]43C)[C@@H]1CC[C@@H]2O [T, Testosterone]	much higher				
C[C@]12CC[C@@H]3c4ccc(O)cc4CC[C@H]3[C@@H]1CC[C@@H]2O [E2 powder, Beta-estradiol]		about 1.85 mg/L	reached the saturation point of the incubation media	maintained the saturation point concentration	approximates the saturation level of E2 in the incubation medium
